# Results published in patent publication US20260364214A1, “MULTIVALENT FIBROBLAST ACTIVATION PROTEIN LIGANDS FOR TARGETED DELIVERY APPLICATIONS” (Philochem AG, priority 2022, published 2026).
# System: SK-RC-52.hFAP tumors
# Assay: Quantitative biodistribution in SK-RC-52.hFAP tumor bearing mice
# Format: in vivo, mouse (female athymic Balb/c AnNRj-Foxn1)
# Conditions: i.v. 250 nmol/kg, 50 MBq/kg
# Procedure: SK-RC-52.hFAP were grown to 80% confluence in RPMI-1640 with 10% fetal bovine serum (FBS) and 1% antibiotic-antimycotic and detached with Trypsin-EDTA (ethylenediaminetetraacetic acid) 0.05%. Tumor cells were resuspended in Hanks' Balanced Salt Solution medium. Aliquots of 5 million cells (100 μL of suspension) were injected subcutaneously in the right flank of female athymic Balb/c AnNRj-Foxn1 mice (6 to 8 wk of age).
# Radiolabeling of ESV6-DOTAGA, Bi-ESV6-DOTAGA, Tri-ESV6-DOTAGA, Tetra-ESV6-DOTAGA, Hexa-ESV6-DOTAGA, Octa-ESV6-DOTAGA and FAP-2286 with lutetium-177 (a therapeutic radionuclide) was performed with different specific activities for three different studies (biodistribution, therapy and dose optimization).
# Prior to the biodistribution study, precursors (100 nmol) were dissolved in 100 μL of milliQ water and diluted with 200 μL of sodium acetate (1 M in water, pH=4.5). 20 MBq of ^177Lu solution were added and the mixture was heated at 90 °C for 10 minutes, followed by dilution with […] of PBS to achieve final volume of 2 mL (20 doses of 100 μL each).
# ESV6-DOTAGA, Bi-ESV6-DOTAGA, Tri-ESV6-DOTAGA, Tetra-ESV6-DOTAGA, Hexa-ESV6-DOTAGA, Octa-ESV6-DOTAGA and FAP-2286 were radiolabeled with ^177Lu as described above. Tumors were allowed to grow to an average volume of 300 mm^3. Mice were randomized and injected intravenously with radiolabeled preparations of ^177Lu-ESV6, ^177Lu-Bi-ESV6, ^177Lu-Tri-ESV6, Tetra-ESV6-DOTAGA, Hexa-ESV6-DOTAGA, Octa-ESV6-DOTAGA or ^177Lu-FAP-2286 (250 nmol/kg; 50 MBq/kg). Mice were euthanized at different time-points after the intravenous injection by CO2 asphyxiation. Tumors, organs, and blood were collected, weighted, and radioactivity was measured with a Packard Cobra Gamma Counter. Values are expressed as percent ID/g±SD [FIG. 4]. The % ID/g in the tumors was corrected considering the SK-RC-52.hFAP tumor growth rate.
# Quantitative in vivo biodistribution of ^177Lu-ESV6-DOTAGA, ^177Lu-Bi-ESV6-DOTAGA, ^177Lu-Tri-ESV6-DOTAGA, ^177Lu-FAP-2286, Tetra-ESV6-DOTAGA, Hexa-ESV6-DOTAGA and Octa-ESV6-DOTAGA at different time points after intravenous administration (250 nmol/kg, 50 MBq/kg) in mice bearing SK-RC-52.hFAP tumors, are shown in Tables 1 to 4 and 10 to 12. Data are reported as % ID/g±standard deviation.
# Tumor-to-organ ratios of ^177Lu-ESV6-DOTAGA, ^177Lu-Bi-ESV6-DOTAGA, ^177Lu-Tri-ESV6-DOTAGA, ^177Lu-FAP-2286, Tetra-ESV6-DOTAGA, Hexa-ESV6-DOTAGA and Octa-ESV6-DOTAGA, at different time points after intravenous administration (250 nmol/kg, 50 MBq/kg) in mice bearing SK-RC-52.hFAP tumors, are shown in Tables 5 to 8 and 13 to 15. Avg.=average; Std.d=standard deviation.
smiles,measurement,setting,value
N#C[C@@H]1CC(F)(F)CN1C(=O)CNC(=O)c1ccnc2c(NC(=O)CCC(=O)NCCNC(=O)CCOCC(COCCC(=O)NCCNC(=O)CCC(=O)Nc3cccc4c(C(=O)NCC(=O)N5CC(F)(F)C[C@H]5C#N)ccnc34)NC(=O)CCOCC(COCCC(=O)NC(COCCC(=O)NCCNC(=O)CCC(=O)Nc3cccc4c(C(=O)NCC(=O)N5CC(F)(F)C[C@H]5C#N)ccnc34)COCCC(=O)NCCNC(=O)CCC(=O)Nc3cccc4c(C(=O)NCC(=O)N5CC(F)(F)C[C@H]5C#N)ccnc34)NC(=O)CCC(C(=O)O)N3CCN(CC(=O)[O-])CCN(CC(=O)[O-])CCN(CC(=O)[O-])CC3)cccc12.[177Lu+3] (stereo partly drawn) [^177Lu-Tetra-ESV6-DOTAGA],"Tumor to organs ratio, Blood",6 h,53.01
same,"Injected dose per gram, Blood",6 h post injection,1.16 % ID/g
same,"Tumor to organs ratio, Blood",24 h,146.80
same,"Injected dose per gram, Blood",24 h post injection,0.29 % ID/g
same,"Tumor to organs ratio, Blood",96 h,1062.04
same,"Injected dose per gram, Blood",96 h post injection,0.01 % ID/g
same,"Tumor to organs ratio, Heart",6 h,114.60
same,"Injected dose per gram, Heart",6 h post injection,0.50 % ID/g
same,"Tumor to organs ratio, Heart",24 h,166.10
same,"Injected dose per gram, Heart",24 h post injection,0.26 % ID/g
same,"Tumor to organs ratio, Heart",96 h,133.14
same,"Injected dose per gram, Heart",96 h post injection,0.12 % ID/g
same,"Tumor to organs ratio, Intestine",6 h,86.50
same,"Injected dose per gram, Intestine",6 h post injection,0.70 % ID/g
same,"Tumor to organs ratio, Intestine",24 h,284.15
same,"Injected dose per gram, Intestine",24 h post injection,0.15 % ID/g
same,"Tumor to organs ratio, Intestine",96 h,213.10
same,"Injected dose per gram, Intestine",96 h post injection,0.07 % ID/g
same,"Tumor to organs ratio, Kidney",6 h,27.69
same,"Injected dose per gram, Kidney",6 h post injection,2.10 % ID/g
same,"Tumor to organs ratio, Kidney",24 h,23.62
same,"Injected dose per gram, Kidney",24 h post injection,1.79 % ID/g
same,"Tumor to organs ratio, Kidney",96 h,2.36
same,"Injected dose per gram, Kidney",96 h post injection,5.77 % ID/g
same,"Tumor to organs ratio, Liver",6 h,15.19
same,"Injected dose per gram, Liver",6 h post injection,3.81 % ID/g
same,"Tumor to organs ratio, Liver",24 h,9.42
same,"Injected dose per gram, Liver",24 h post injection,4.52 % ID/g
same,"Tumor to organs ratio, Liver",96 h,2.07
same,"Injected dose per gram, Liver",96 h post injection,6.64 % ID/g
same,"Tumor to organs ratio, Lung",6 h,52.76
same,"Injected dose per gram, Lung",6 h post injection,1.09 % ID/g
same,"Tumor to organs ratio, Lung",24 h,138.32
same,"Injected dose per gram, Lung",24 h post injection,0.35 % ID/g
same,"Tumor to organs ratio, Lung",96 h,69.86
same,"Injected dose per gram, Lung",96 h post injection,0.24 % ID/g
same,"Tumor to organs ratio, Muscle",6 h,61.99
same,"Injected dose per gram, Muscle",6 h post injection,0.94 % ID/g
same,"Tumor to organs ratio, Muscle",24 h,98.07
same,"Injected dose per gram, Muscle",24 h post injection,0.44 % ID/g
same,"Tumor to organs ratio, Muscle",96 h,288.08
same,"Injected dose per gram, Muscle",96 h post injection,0.06 % ID/g
same,"Tumor to organs ratio, Spleen",6 h,44.00
same,"Injected dose per gram, Spleen",6 h post injection,1.33 % ID/g
same,"Tumor to organs ratio, Spleen",24 h,20.72
same,"Injected dose per gram, Spleen",24 h post injection,2.19 % ID/g
same,"Tumor to organs ratio, Spleen",96 h,3.88
same,"Injected dose per gram, Spleen",96 h post injection,3.64 % ID/g
same,"Tumor to organs ratio, Tail",6 h,24.06
same,"Injected dose per gram, Tail",6 h post injection,1.85 % ID/g
same,"Tumor to organs ratio, Tail",24 h,36.71
same,"Injected dose per gram, Tail",24 h post injection,1.16 % ID/g
same,"Tumor to organs ratio, Tail",96 h,24.96
same,"Injected dose per gram, Tail",96 h post injection,0.54 % ID/g
same,"Injected dose per gram, Tumor",6 h post injection,57.25 % ID/g
same,"Injected dose per gram, Tumor",24 h post injection,42.15 % ID/g
same,"Injected dose per gram, Tumor",96 h post injection,13.36 % ID/g
